From publication PMC3066644 (Journal of Lipids, 2010)

Tests used:
acid ceramidase (aCDase) [1] = biological target: T1, acid ceramidase (aCDase) (Homo sapiens, UniProt Q13510); assay: micellar aCDase assay with recombinant human enzyme, HPLC fluorescence detection of sphingosine; assay type: biochemical
T1 construct: gene ASAH1
T1 sequence (Q13510 22-142): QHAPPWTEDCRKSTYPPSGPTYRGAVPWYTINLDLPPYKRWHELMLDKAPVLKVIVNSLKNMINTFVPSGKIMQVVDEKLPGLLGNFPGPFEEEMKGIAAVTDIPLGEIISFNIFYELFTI
T1 sequence (Q13510 143-395): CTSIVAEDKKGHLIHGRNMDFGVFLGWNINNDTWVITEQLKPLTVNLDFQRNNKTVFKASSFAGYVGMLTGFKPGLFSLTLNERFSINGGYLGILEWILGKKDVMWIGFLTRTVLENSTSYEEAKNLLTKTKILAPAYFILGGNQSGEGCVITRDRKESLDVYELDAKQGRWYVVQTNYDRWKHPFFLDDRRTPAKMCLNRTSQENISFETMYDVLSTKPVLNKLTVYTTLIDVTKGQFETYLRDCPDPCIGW

acid ceramidase (aCDase) [2] = biological target: T1, acid ceramidase (aCDase); assay: micellar aCDase assay at […] inhibitor, recombinant human enzyme; assay type: biochemical

IC50 (acid ceramidase (aCDase) [1]) [nM]	SMILES	micellar aCDase assay at 2.5 μM inhibitor, recombinant human enzyme (acid ceramidase (aCDase) [2])
1290	CCCCCCCCCCCCCC(=O)NCC(O)c1ccccc1 (racemic) [DP24a, N-(2-Hydroxy-2-Phenylethyl)-Tetradecanamide]	
	CCCCCCCCCCCCCCNC(=O)NCC(O)c1cccnc1 (racemic) [DP25c, 1-(2-Hydroxy-2-(Pyridin-3-yl)Ethyl)-3-Tetradecylurea]	Evaluation in the aCDase assay revealed only a slightly better inhibition
	CCCCCCCCCCCCCCNC(=O)NCC(O)c1ccccc1 (racemic) [DP25a, 1-(2-Hydroxy-2-Phenylethyl)-3-Tetradecylurea]	Evaluation in the aCDase assay revealed only a slightly better inhibition
	CCCCCCCCCCCCCC(=O)NCC(O)c1cccnc1 (racemic) [DP24c, N-(2-Hydroxy-2-(Pyridin-3-yl)-Ethyl)Tetradecanamide]	Although DP24c provides a basic moiety, it showed at least the same inhibition as DP24a or DP24b
